Measured values from ChEMBL document CHEMBL1156210, “Discovery of tertiary sulfonamides as potent liver X receptor antagonists” (J Med Chem, 2010).
Active and inactive are the calls of the source. The calls are words filed in the database; no cut-off is given here.

Assays:
[1] = biological target: T1, Oxysterols receptor LXR-beta (Homo sapiens, UniProt P55055); assay: Displacement of [N-methyl-3H]T1317 from human biotinylated LXRbeta LBD after 3 hrs by LEAD seeker binding assay
[2] = biological target: T2, Oxysterols receptor LXR-alpha (Homo sapiens, UniProt Q13133); assay: (§1) Agonist activity at LXRalpha ligand binding domain-mediated transcriptional activity in african green monkey CV1 cells co-transfected with Gal4-SRC1 by luciferase reporter assay; type: cell-based, CV-1
T2 sequence (Q13133 whole entry): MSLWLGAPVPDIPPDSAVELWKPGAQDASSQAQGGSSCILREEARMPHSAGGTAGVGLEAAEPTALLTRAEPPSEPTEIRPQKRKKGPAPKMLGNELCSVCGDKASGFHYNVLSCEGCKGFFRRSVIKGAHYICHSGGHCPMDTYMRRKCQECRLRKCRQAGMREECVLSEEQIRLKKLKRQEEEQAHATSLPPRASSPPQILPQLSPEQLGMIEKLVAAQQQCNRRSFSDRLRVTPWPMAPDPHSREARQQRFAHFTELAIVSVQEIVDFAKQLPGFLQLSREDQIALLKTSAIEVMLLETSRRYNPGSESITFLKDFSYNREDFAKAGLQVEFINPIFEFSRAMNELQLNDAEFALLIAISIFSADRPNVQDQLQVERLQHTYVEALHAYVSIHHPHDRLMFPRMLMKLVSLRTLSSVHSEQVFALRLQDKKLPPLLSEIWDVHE

[3] = biological target: T1, Oxysterols receptor LXR-beta; assay: Agonist activity at LXRbeta ligand binding domain-mediated transcriptional activity in african green monkey CV1 cells co-transfected with Gal4-SRC1 by luciferase reporter assay; type: cell-based, CV-1
[4] = biological target: T3, Oxysterols receptor LXR-alpha (Homo sapiens) (UniProt Q13133); assay: as §1; type: cell-based; settings: CV-1
T3 sequence (whole entry): T2 sequence (Q13133 whole entry)

HepG2 [5] = assay: Inhibition of GW-3965-induced SREBP-1c expression in human HepG2 cells; type: functional, cell-based
[6] = biological target: T1, Oxysterols receptor LXR-beta; settings: CV-1
HepG2 [7] = assay: Inhibition of basal triglyceride level in human HepG2 cells
THP-1 = assay: Inhibition of ABCA1 expression in human THP1 cells; type: functional, cell-based
HepG2 [8] = assay: Inhibition of SREBP-1c expression in human HepG2 cells; type: functional, cell-based

T1 sequence (P55055 whole entry, the tested form may be a part): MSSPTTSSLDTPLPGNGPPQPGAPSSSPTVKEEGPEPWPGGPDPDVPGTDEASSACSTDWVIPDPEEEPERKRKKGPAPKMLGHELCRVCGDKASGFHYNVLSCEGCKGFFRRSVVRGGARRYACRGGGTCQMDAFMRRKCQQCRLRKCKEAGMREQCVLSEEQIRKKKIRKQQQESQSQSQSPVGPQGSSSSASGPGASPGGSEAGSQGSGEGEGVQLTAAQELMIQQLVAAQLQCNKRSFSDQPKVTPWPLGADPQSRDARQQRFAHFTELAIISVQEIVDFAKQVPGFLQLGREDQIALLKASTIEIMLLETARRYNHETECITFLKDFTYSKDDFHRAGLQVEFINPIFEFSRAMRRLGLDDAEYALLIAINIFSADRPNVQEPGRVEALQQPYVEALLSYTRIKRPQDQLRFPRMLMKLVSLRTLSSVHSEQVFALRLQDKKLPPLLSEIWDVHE

Compound | IC50 [1] | EC50 [2] | also measured
O=C(c1ccccc1)N(Cc1ccc(-c2ccccc2)cc1)Cc1ccc(F)cc1Cl | > 10000 nM |  | 
CS(=O)(=O)c1cccc(-c2ccc(CN(Cc3c(F)cccc3Cl)S(=O)(=O)c3ccccc3)cc2)c1 |  | 6.31 nM | 
CS(=O)(=O)c1cccc(-c2ccc(CN(Cc3c(F)cccc3Cl)S(=O)(=O)C3CC3)cc2)c1 |  | 100 nM | 
Cn1cnc(S(=O)(=O)N(Cc2ccc(-c3cccc(S(C)(=O)=O)c3)cc2)Cc2c(F)cccc2Cl)c1 |  | 79.4 nM | 
Cc1ccccc1S(=O)(=O)N(Cc1ccc(-c2cccc(S(C)(=O)=O)c2)cc1)Cc1c(F)cccc1Cl |  | 12.6 nM | 
Fc1ccc(CN(Cc2ccccc2)Cc2ccc(-c3ccccc3)cc2)c(Cl)c1 | > 10000 nM |  | 
O=C(O)Cc1cccc(OCCCN(Cc2cccc(C(F)(F)F)c2Cl)CC(c2ccccc2)c2ccccc2)c1 | 19.9 nM |  | EC50 [3]: 100 nM
Cc1cc(C)c(S(=O)(=O)N(Cc2ccc(-c3cccc(S(C)(=O)=O)c3)cc2)Cc2c(F)cccc2Cl)c(C)c1 |  | 79.4 nM | 
CS(=O)(=O)c1cccc(-c2ccc(CN(Cc3ccc(F)cc3Cl)S(=O)(=O)c3ccccc3)cc2)c1 |  | 10 nM | 
Cc1cc(C)c(S(=O)(=O)N(Cc2ccc(-c3cccc(S(C)(=O)=O)c3)cc2)Cc2ccc(F)cc2Cl)c(C)c1 |  | 126 nM | 
Cc1cc(C)c(S(=O)(=O)N(Cc2ccc(-c3cccc(S(C)(=O)=O)c3)cc2)Cc2ccc(C(F)(F)F)o2)c(C)c1 | 31.6 nM |  | pEC50 [4]: inactive; Activity (HepG2 [5]): Dose-dependent effect; pEC50 [6]: inactive; Activity (HepG2 [7]): Active; IC50 (THP-1): < 100 nM; IC50 (HepG2 [8]): < 100 nM
